# Test system: Penicillium decumbens
# Assay: Inhibition of Penicillium decumbens alpha-L-rhamnosidase assessed as release of p-nitrophenol at 1000 uM using p-nitrophenyl glycoside as substrate by spectrometric assay relative to control
row,SMILES,inhibition
1,COc1ccc([C@]2(CO)NC[C@@H](O)[C@@H]2O)cc1,0%
2,OC[C@]1(c2ccc(O)cc2)NC[C@H](O)[C@H]1O,4.5%

# Target: not listed separately
# Assay: Inhibition of rice alpha-glucosidase assessed as release of p-nitrophenol using p-nitrophenyl glycoside as substrate by spectrometric assay
# Design: species or system Oryza sativa
row,SMILES,IC50
1,OC[C@]1(c2ccc(O)cc2)NC[C@H](O)[C@H]1O,285 µM

# Organism: Bos taurus
# Assay: Inhibition of bovine liver beta-galactosidase assessed as release of p-nitrophenol at 1000 uM using p-nitrophenyl glycoside as substrate by spectrometric assay relative to control
row,SMILES,inhibition
1,COc1ccc([C@]2(CO)NC[C@@H](O)[C@@H]2O)cc1,41%
2,OC[C@]1(c2ccc(O)cc2)NC[C@H](O)[C@H]1O,40.3%

# Target: T1, Sucrase-isomaltase, intestinal (Rattus norvegicus, UniProt P23739)
# T1 sequence (P23739 1-1013 limits assumed): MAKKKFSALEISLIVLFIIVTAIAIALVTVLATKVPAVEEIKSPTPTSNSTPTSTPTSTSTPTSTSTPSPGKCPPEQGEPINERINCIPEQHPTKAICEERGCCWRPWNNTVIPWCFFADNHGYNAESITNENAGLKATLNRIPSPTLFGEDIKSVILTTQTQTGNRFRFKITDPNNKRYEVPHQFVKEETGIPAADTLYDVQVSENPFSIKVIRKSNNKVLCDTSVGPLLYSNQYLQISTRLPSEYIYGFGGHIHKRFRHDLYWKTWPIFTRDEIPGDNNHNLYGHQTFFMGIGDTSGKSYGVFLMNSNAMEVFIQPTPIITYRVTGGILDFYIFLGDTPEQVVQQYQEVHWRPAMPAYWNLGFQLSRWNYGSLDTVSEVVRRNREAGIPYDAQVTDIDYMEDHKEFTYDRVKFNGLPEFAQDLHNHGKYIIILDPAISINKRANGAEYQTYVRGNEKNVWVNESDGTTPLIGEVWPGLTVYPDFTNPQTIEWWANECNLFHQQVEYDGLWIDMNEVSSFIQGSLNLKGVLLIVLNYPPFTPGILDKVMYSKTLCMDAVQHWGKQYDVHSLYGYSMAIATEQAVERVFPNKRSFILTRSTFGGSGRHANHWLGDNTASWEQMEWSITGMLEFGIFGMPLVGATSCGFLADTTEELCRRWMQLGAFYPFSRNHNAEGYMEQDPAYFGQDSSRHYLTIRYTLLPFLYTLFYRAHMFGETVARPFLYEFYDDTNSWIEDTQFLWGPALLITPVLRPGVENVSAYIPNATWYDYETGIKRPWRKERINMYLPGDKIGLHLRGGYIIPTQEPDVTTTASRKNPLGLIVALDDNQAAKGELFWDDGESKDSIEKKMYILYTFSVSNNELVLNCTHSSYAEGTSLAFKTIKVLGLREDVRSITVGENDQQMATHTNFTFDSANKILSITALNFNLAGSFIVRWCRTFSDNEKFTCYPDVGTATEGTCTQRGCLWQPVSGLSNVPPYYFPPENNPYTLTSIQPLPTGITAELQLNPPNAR
# T1 sequence (P23739 1014-1841 limits assumed): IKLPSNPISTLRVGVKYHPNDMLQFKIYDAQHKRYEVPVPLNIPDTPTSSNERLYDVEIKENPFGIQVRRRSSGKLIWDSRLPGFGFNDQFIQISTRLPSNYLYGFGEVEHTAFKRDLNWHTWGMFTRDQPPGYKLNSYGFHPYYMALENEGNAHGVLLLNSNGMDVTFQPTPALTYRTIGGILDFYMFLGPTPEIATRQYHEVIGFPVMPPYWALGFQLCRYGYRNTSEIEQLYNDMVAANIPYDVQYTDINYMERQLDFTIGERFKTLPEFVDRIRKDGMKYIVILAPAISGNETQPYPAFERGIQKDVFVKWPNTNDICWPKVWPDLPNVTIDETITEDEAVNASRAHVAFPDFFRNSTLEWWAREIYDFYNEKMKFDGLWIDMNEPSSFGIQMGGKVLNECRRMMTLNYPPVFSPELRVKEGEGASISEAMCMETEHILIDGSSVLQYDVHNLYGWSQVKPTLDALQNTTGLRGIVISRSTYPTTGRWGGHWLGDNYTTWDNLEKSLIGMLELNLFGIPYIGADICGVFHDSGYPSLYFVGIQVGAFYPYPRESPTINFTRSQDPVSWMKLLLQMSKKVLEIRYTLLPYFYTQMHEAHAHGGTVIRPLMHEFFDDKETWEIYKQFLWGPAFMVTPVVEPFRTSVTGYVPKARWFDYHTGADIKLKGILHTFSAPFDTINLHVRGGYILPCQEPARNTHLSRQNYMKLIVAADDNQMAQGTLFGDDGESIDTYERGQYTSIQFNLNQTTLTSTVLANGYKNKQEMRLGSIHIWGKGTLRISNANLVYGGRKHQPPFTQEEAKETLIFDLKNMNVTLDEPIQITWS
# Assay: Inhibition of rat intestinal sucrase assessed as release of p-nitrophenol using p-nitrophenyl glycoside as substrate by spectrometric assay
row,SMILES,IC50
1,OC[C@]1(c2ccccc2)NC[C@H](O)[C@H]1O,0.48 µM
2,COc1ccc([C@@]2(CO)NC[C@H](O)[C@H]2O)cc1,0.33 µM
3,C[C@@]1(CO)NC[C@H](O)[C@H]1O,0.64 µM
4,CCCC[C@@]1(CO)NC[C@H](O)[C@H]1O,0.23 µM
5,COc1ccc([C@]2(CO)NC[C@@H](O)[C@@H]2O)cc1,107 µM
6,OC[C@]1(c2ccc(O)cc2)NC[C@H](O)[C@H]1O,0.18 µM
7,CCCCCCCCC[C@@]1(CO)NC[C@H](O)[C@H]1O,0.68 µM

# Test system: Escherichia coli
# Assay: Inhibition of Escherichia coli beta-glucuronidase assessed as release of p-nitrophenol at 1000 uM using p-nitrophenyl glycoside as substrate by spectrometric assay relative to control
row,SMILES,inhibition
1,COc1ccc([C@]2(CO)NC[C@@H](O)[C@@H]2O)cc1,25%
2,OC[C@]1(c2ccc(O)cc2)NC[C@H](O)[C@H]1O,1.8%

# Organism: Rattus norvegicus
# Assay: Inhibition of rat intestinal alpha-trehalase assessed as release of p-nitrophenol at 1000 uM using p-nitrophenyl glycoside as substrate by spectrometric assay relative to control
row,SMILES,inhibition
1,OC[C@]1(c2ccc(O)cc2)NC[C@H](O)[C@H]1O,1.2%

# Target: not listed separately
# Assay: Inhibition of bovine liver beta-glucosidase assessed as release of p-nitrophenol using p-nitrophenyl glycoside as substrate by spectrometric assay
# Design: species or system Bos taurus
row,SMILES,IC50
1,OC[C@]1(c2ccccc2)NC[C@H](O)[C@H]1O,71 µM
2,C[C@@]1(CO)NC[C@H](O)[C@H]1O,183 µM
3,CCCC[C@@]1(CO)NC[C@H](O)[C@H]1O,226 µM
4,CCCCCCCCC[C@@]1(CO)NC[C@H](O)[C@H]1O,430 µM

# Test system: Oryza sativa
# Assay: Inhibition of rice alpha-glucosidase assessed as release of p-nitrophenol at 1000 uM using p-nitrophenyl glycoside as substrate by spectrometric assay relative to control
row,SMILES,inhibition
1,COc1ccc([C@]2(CO)NC[C@@H](O)[C@@H]2O)cc1,37.8%

# Target: T2, Alpha-mannosidase (Canavalia ensiformis) (UniProt C0HJB3)
# T2 sequence (whole entry): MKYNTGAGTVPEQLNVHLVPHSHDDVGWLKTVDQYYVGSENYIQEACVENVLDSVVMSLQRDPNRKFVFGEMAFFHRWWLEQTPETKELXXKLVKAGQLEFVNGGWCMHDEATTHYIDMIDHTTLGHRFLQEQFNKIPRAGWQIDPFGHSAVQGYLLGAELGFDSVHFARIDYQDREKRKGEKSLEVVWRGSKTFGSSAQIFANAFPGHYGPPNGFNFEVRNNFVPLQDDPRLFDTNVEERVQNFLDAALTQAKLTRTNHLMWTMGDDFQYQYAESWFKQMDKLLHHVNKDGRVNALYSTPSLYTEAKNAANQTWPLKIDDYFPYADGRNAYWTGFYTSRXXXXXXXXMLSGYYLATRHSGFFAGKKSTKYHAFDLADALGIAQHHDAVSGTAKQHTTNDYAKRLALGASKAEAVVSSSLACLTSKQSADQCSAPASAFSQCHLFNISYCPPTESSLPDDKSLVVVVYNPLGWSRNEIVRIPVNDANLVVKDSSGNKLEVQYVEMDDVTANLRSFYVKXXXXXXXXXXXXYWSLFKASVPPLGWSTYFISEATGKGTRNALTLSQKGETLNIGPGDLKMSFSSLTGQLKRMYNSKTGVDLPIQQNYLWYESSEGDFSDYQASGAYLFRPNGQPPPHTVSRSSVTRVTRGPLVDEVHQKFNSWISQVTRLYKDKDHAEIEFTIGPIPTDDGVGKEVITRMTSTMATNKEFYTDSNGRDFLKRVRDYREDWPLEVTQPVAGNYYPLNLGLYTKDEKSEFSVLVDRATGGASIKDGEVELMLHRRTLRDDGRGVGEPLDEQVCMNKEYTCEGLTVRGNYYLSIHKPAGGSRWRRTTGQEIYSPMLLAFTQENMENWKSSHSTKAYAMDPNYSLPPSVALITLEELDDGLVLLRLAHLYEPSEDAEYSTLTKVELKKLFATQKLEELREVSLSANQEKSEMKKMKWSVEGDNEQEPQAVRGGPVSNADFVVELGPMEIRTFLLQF
# Assay: Inhibition of jack bean alpha-mannosidase assessed as release of p-nitrophenol at 1000 uM using p-nitrophenyl glycoside as substrate by spectrometric assay relative to control
row,SMILES,inhibition
1,COc1ccc([C@]2(CO)NC[C@@H](O)[C@@H]2O)cc1,0.2%
2,OC[C@]1(c2ccc(O)cc2)NC[C@H](O)[C@H]1O,3.4%

# Organism: Sus scrofa
# Assay: Inhibition of porcine kidney alpha-trehalase assessed as release of p-nitrophenol at 1000 uM using p-nitrophenyl glycoside as substrate by spectrometric assay relative to control
row,SMILES,inhibition
1,COc1ccc([C@]2(CO)NC[C@@H](O)[C@@H]2O)cc1,3%
2,OC[C@]1(c2ccc(O)cc2)NC[C@H](O)[C@H]1O,12.9%

# Target: T3, Tissue alpha-L-fucosidase (Bos taurus) (UniProt Q2KIM0)
# T3 sequence (whole entry): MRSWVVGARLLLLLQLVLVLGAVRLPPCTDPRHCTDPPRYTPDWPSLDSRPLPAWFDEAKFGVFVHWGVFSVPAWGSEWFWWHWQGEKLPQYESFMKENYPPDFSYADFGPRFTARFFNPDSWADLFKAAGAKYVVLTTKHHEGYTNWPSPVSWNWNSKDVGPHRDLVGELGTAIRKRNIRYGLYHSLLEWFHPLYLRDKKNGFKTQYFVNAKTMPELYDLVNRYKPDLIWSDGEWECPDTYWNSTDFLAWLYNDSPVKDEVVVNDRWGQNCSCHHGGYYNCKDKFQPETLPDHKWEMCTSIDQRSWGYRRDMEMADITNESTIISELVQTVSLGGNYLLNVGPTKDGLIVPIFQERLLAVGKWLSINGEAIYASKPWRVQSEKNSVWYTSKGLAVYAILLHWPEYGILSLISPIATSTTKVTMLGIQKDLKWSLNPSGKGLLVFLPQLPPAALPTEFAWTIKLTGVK
# Assay: Inhibition of bovine kidney alpha-L-fucosidase assessed as release of p-nitrophenol at 1000 uM using p-nitrophenyl glycoside as substrate by spectrometric assay relative to control
row,SMILES,inhibition
1,COc1ccc([C@]2(CO)NC[C@@H](O)[C@@H]2O)cc1,2.7%
2,OC[C@]1(c2ccc(O)cc2)NC[C@H](O)[C@H]1O,0%

# Target: T1, Sucrase-isomaltase, intestinal
# Assay: Inhibition of rat intestinal isomaltase assessed as release of p-nitrophenol using p-nitrophenyl glycoside as substrate by spectrometric assay
row,SMILES,IC50
1,OC[C@]1(c2ccccc2)NC[C@H](O)[C@H]1O,32 µM
2,COc1ccc([C@@]2(CO)NC[C@H](O)[C@H]2O)cc1,650 µM
3,C[C@@]1(CO)NC[C@H](O)[C@H]1O,2 µM
4,CCCC[C@@]1(CO)NC[C@H](O)[C@H]1O,13 µM
5,CCCCCCCCC[C@@]1(CO)NC[C@H](O)[C@H]1O,113 µM

# Target: T4, Lysosomal alpha-glucosidase (Homo sapiens, UniProt P10253)
# Assay: Inhibition of human lysosomal alpha glucosidase assessed as release of p-nitrophenol at 1000 uM using p-nitrophenyl glycoside as substrate by spectrometric assay relative to control
row,SMILES,inhibition
1,COc1ccc([C@]2(CO)NC[C@@H](O)[C@@H]2O)cc1,40.2%

# Target: Alpha-galactosidase (Coffea arabica) (UniProt Q42656)
# Sequence (Q42656 16-378 limits assumed): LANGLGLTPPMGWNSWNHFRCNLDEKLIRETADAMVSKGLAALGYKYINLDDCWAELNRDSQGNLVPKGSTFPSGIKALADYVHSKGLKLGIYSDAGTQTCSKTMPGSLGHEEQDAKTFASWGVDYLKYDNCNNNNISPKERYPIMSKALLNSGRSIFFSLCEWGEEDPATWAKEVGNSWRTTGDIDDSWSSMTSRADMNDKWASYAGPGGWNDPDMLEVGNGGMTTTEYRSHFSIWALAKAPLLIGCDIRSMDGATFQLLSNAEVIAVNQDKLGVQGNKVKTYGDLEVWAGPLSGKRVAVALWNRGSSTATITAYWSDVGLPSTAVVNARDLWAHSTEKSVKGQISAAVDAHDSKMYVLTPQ
# Assay: Inhibition of coffee beans alpha-galactosidase assessed as release of p-nitrophenol at 1000 uM using p-nitrophenyl glycoside as substrate by spectrometric assay relative to control
row,SMILES,inhibition
1,COc1ccc([C@]2(CO)NC[C@@H](O)[C@@H]2O)cc1,7.5%
2,OC[C@]1(c2ccc(O)cc2)NC[C@H](O)[C@H]1O,3.6%

# Test system: Aspergillus niger
# Assay: Inhibition of Aspergillus niger amyloglucosidase assessed as release of p-nitrophenol at 1000 uM using p-nitrophenyl glycoside as substrate by spectrometric assay relative to control
row,SMILES,inhibition
1,COc1ccc([C@]2(CO)NC[C@@H](O)[C@@H]2O)cc1,0%
2,OC[C@]1(c2ccc(O)cc2)NC[C@H](O)[C@H]1O,11.5%

# Target: T4, Lysosomal alpha-glucosidase
# Assay: Inhibition of human lysosomal alpha glucosidase assessed as release of p-nitrophenol using p-nitrophenyl glycoside as substrate by spectrometric assay
row,SMILES,IC50
1,OC[C@]1(c2ccccc2)NC[C@H](O)[C@H]1O,0.63 µM
2,COc1ccc([C@@]2(CO)NC[C@H](O)[C@H]2O)cc1,601 µM
3,C[C@@]1(CO)NC[C@H](O)[C@H]1O,5.6 µM
4,CCCC[C@@]1(CO)NC[C@H](O)[C@H]1O,2.4 µM
5,OC[C@]1(c2ccc(O)cc2)NC[C@H](O)[C@H]1O,376 µM
6,CCCCCCCCC[C@@]1(CO)NC[C@H](O)[C@H]1O,3.7 µM

# Test system: Saccharomyces cerevisiae
# Assay: Inhibition of yeast alpha-glucosidase assessed as release of p-nitrophenol at 1000 uM using p-nitrophenyl glycoside as substrate by spectrometric assay relative to control
row,SMILES,inhibition
1,COc1ccc([C@]2(CO)NC[C@@H](O)[C@@H]2O)cc1,22%

# Test system: Helix pomatia
# Assay: Inhibition of snail beta-mannosidase assessed as release of p-nitrophenol at 1000 uM using p-nitrophenyl glycoside as substrate by spectrometric assay relative control
row,SMILES,inhibition
1,COc1ccc([C@]2(CO)NC[C@@H](O)[C@@H]2O)cc1,0%
2,OC[C@]1(c2ccc(O)cc2)NC[C@H](O)[C@H]1O,0%

# Organism: Bos taurus
# Assay: Inhibition of bovine liver beta-glucronidase assessed as release of p-nitrophenol at 1000 uM using p-nitrophenyl glycoside as substrate by spectrometric assay relative to control
row,SMILES,inhibition
1,COc1ccc([C@]2(CO)NC[C@@H](O)[C@@H]2O)cc1,5.9%
2,OC[C@]1(c2ccc(O)cc2)NC[C@H](O)[C@H]1O,12.6%

# Target: not listed separately
# Assay: Inhibition of yeast alpha-glucosidase assessed as release of p-nitrophenol using p-nitrophenyl glycoside as substrate by spectrometric assay
# Design: species or system Saccharomyces cerevisiae
row,SMILES,IC50
1,OC[C@]1(c2ccc(O)cc2)NC[C@H](O)[C@H]1O,12 µM

# Organism: Bos taurus
# Assay: Inhibition of bovine liver beta-glucosidase assessed as release of p-nitrophenol at 1000 uM using p-nitrophenyl glycoside as substrate by spectrometric assay relative to control
row,SMILES,inhibition
1,COc1ccc([C@@]2(CO)NC[C@H](O)[C@H]2O)cc1,43%
2,COc1ccc([C@]2(CO)NC[C@@H](O)[C@@H]2O)cc1,33.5%
3,OC[C@]1(c2ccc(O)cc2)NC[C@H](O)[C@H]1O,27.6%

# Test system: Prunus dulcis
# Assay: Inhibition of almond beta-glucosidase assessed as release of p-nitrophenol at 1000 uM using p-nitrophenyl glycoside as substrate by spectrometric assay relative to control
row,SMILES,inhibition
1,OC[C@]1(c2ccccc2)NC[C@H](O)[C@H]1O,0.9%
2,COc1ccc([C@@]2(CO)NC[C@H](O)[C@H]2O)cc1,7.1%
3,C[C@@]1(CO)NC[C@H](O)[C@H]1O,6.2%
4,CCCC[C@@]1(CO)NC[C@H](O)[C@H]1O,0.9%
5,COc1ccc([C@]2(CO)NC[C@@H](O)[C@@H]2O)cc1,2.7%
6,OC[C@]1(c2ccc(O)cc2)NC[C@H](O)[C@H]1O,14.8%
7,CCCCCCCCC[C@@]1(CO)NC[C@H](O)[C@H]1O,0%

# — ChEMBL document CHEMBL5131499, “Design, synthesis and glycosidase inhibition of C-4 branched LAB and DAB derivatives” (Eur J Med Chem, 2022)
